Results as given in paper doi:10.1101/2025.08.20.671340v1 (biorxiv, 2025).

Legend:
[1] = biological target: T1, hAChE (human acetylcholinesterase) (Homo sapiens, UniProt P22303); assay: enzyme inhibition assay; format: biochemical
physchem = conditions: pbs
[2] = biological target: T1, hAChE (human acetylcholinesterase); assay: biochemical
[3] = biological target: T1, hAChE (human acetylcholinesterase); assay: enzyme inhibition assay; format: biochemical; conditions: footnote d not shown: inhibition or residual activity and concentration unknown

T1 sequence (P22303 32-614): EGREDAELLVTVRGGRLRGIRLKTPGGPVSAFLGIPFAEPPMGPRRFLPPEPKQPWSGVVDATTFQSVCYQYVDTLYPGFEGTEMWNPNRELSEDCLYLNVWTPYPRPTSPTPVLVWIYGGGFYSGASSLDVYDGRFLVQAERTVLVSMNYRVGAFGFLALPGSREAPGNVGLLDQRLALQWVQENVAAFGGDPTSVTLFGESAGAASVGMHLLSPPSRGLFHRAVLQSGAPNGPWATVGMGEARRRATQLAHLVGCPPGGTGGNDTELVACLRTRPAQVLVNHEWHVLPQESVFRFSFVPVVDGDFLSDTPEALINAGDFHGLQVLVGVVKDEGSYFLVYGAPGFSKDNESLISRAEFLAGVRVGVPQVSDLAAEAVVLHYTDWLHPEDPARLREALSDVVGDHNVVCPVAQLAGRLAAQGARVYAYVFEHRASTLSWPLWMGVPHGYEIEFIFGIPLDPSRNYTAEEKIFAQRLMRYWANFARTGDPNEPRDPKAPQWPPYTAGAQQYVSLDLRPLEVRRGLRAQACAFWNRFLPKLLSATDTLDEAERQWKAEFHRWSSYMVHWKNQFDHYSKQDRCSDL

| SMILES | IC50 [1] [µM] | further results |
| --- | --- | --- |
| CN(CCC1CCCCCC1)Cc1c[nH]c2c([Se]C(=O)N(C)C)cccc12 [compound 3] | 9.75 |  |
| CN(CCC1CCCCCC1)Cc1c[nH]c2c(N(C)C(=O)Sc3nnnn3C)cccc12 [compound 23] | 16.9 | half-life (physchem): ~38 days |
| CN(CCC1CCCCCC1)Cc1c[nH]c2c(NC(=O)n3ccnc3)cccc12 [compound 33, N-(3-(((2-Cycloheptylethyl)(methyl)amino)methyl)-1H-indol-7-yl)-1H-imidazole-1-carboxamide] |  | IC50 [2]: 17.3 µM |
| CN(CCC1CCCCCC1)Cc1c[nH]c2c(N(C)C(=O)On3ccnc3)cccc12 [compound 14] | 24.2 | half-life (physchem): ~18 days |
| CN(CCC1CCCCCC1)Cc1c[nH]c2c(N(C)C(=O)OCC(F)(F)F)cccc12 [compound 7] |  | % (footnote d) [3]: 51.6 ± 0.8% |
| CN(CCC1CCCCCC1)Cc1c[nH]c2c(N(C)C(=O)[Se]c3ccccc3)cccc12 [compound 25] |  | % (footnote d) [3]: 53.6 ± 2.7% |
| CN(CCC1CCCCCC1)Cc1c[nH]c2c(N(C)C(=O)OC(C(F)(F)F)(C(F)(F)F)C(F)(F)F)cccc12 [compound 9] | 6.7 |  |
| CN(CCC1CCCCCC1)Cc1c[nH]c2c(N(C)C(=O)OC(C(F)(F)F)C(F)(F)F)cccc12 [compound 8] | 25.8 |  |
| CN(CCC1CCCCCC1)Cc1c[nH]c2c(N(C)C(=O)Sc3nncn3C)cccc12 [compound 22] | 21.8 | half-life (physchem): ~25 days |
| CN(CCC1CCCCCC1)Cc1c[nH]c2c(N(C)C(=O)n3cnc([N+](=O)[O-])c3)cccc12 [compound 27] | 15.9 |  |
| CC[Se]C(=O)N(C)c1cccc2c(CN(C)CCC3CCCCCC3)c[nH]c12 [compound 24] | 30.2 |  |
| CN(CCC1CCCCCC1)Cc1c[nH]c2c(N(C)C(=O)F)cccc12 [compound 6] | 0.177 ± 0.006 | half-life (physchem): ~4 days |
| CN(CCC1CCCCCC1)Cc1c[nH]c2c(SC(=O)N(C)C)cccc12 [compound 2] | 11.1 |  |
| CN(CCC1CCCCCC1)Cc1c[nH]c2c(N(C)C(=O)Oc3c(F)c(F)c(F)c(F)c3F)cccc12 [compound 11] | 0.788 ± 0.176 |  |
| CN(CCC1CCCCCC1)Cc1c[nH]c2c(N(C)C(=O)Oc3ccccc3)cccc12 [compound 10] | 21.2 |  |
| CN(CCC1CCCCCC1)Cc1c[nH]c2c(N(C)C(=O)n3ccnc3)cccc12 [compound 26] | 47.3 | half-life (physchem): ~14 days |
| CN(CCC1CCCCCC1)Cc1c[nH]c2c([Te]C(=O)N(C)C)cccc12 [compound 4] | 13.2 |  |
